Eight compounds from ChEMBL document CHEMBL1201862, “PubChem BioAssay data set” (2004) can be followed below.

Usually AC50 stands for the concentration giving half of the maximal activity seen.

Structures are written as SMILES. The source made the active and inactive calls. Bounds are passed on as bounds.

Test [1] is described as follows: Late stage assay provider results from the probe development effort to identify inhibitors of the Plasmodium falciparum M18 Aspartyl Aminopeptidase (M18AAP): radiolabel-based cell-based dose response assay to identify compounds that inhibit P. falciparum growth in RBCs, Set 2.. In kind it is functional.
A short description of test [2]: MITF Orthogonal Assay: SK-MEL-5 CTG Assay Measured in Cell-Based System Using Plate Reader - 2084-02_Inhibitor_Dose_DryPowder_Activity_Set7. In kind it is functional.
Test [3] in a line: MITF: Counter assay: A375 proliferation Measured in Cell-Based System Using Plate Reader - 2084-03_Inhibitor_Dose_DryPowder_Activity_Set8. In kind it is functional. The note with it: A-375.
A short description of test [4]: inhibitors of TRPM1-promoter reporter in SK-MEL-5 – cell-based, luciferase, dry powder, set 8, MITF inhibitor project, dose response (AID 624430). In kind it is functional.
Test [5] deals with T1, High affinity choline transporter 1 (Homo sapiens, UniProt Q9GZV3).
T1 sequence (Q9GZV3 whole entry): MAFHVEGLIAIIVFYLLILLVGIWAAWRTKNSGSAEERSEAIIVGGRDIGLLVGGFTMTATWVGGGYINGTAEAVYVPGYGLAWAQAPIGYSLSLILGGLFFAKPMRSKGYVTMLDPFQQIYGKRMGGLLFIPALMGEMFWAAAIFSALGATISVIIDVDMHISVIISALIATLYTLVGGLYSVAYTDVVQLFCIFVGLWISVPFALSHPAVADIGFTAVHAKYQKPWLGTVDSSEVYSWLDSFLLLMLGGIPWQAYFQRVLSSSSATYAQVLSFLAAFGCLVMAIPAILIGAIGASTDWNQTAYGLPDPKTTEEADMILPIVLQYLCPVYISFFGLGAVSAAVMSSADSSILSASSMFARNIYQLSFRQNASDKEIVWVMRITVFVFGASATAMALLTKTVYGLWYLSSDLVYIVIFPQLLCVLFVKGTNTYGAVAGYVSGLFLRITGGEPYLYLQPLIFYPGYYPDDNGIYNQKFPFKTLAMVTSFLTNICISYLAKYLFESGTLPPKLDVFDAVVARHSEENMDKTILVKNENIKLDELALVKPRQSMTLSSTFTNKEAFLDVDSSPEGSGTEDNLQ
In words: inhibition of SLC5A7-mediated choline transport – cell-based, HEK-293 hCHT, [3H]-choline uptake, dose response (AID 652177). In kind it is functional.

The target in test [6] is T2, Bcl-2-like protein 10 (Homo sapiens, UniProt Q9HD36).
T2 sequence (Q9HD36 whole entry): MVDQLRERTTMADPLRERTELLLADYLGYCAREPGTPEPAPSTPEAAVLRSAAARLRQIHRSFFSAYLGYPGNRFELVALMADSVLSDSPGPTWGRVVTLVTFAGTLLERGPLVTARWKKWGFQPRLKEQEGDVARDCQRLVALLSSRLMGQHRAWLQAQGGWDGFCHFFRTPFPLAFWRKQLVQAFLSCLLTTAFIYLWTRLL
In words: Bcl-B/TR3 peptide binding disruption – biochemical, fluorescence polarization, FITC-TR3 peptide, selectivity assay for Bfl-1 inhibitor project, primary screen (AID 748).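 Note: fluorescence polarization from a fluorescein-labelled TR3 peptide binding purified Bcl-B.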

Test [7] in a line: cells. The note with it: A549.
Test [8] is described as follows: cells.
The target of test [9] is Tyrosine-protein phosphatase non-receptor type 11 (Homo sapiens, UniProt Q06124). In words: PTPN11 enzyme inhibitors – biochemical, selectivity assay for STEP inhibitor project, dose response (AID 602367). In kind it is functional. To be noted: read-out: IC50_Mean.
Chain of Tyrosine-protein phosphatase non-receptor type 11 (Q06124 whole entry): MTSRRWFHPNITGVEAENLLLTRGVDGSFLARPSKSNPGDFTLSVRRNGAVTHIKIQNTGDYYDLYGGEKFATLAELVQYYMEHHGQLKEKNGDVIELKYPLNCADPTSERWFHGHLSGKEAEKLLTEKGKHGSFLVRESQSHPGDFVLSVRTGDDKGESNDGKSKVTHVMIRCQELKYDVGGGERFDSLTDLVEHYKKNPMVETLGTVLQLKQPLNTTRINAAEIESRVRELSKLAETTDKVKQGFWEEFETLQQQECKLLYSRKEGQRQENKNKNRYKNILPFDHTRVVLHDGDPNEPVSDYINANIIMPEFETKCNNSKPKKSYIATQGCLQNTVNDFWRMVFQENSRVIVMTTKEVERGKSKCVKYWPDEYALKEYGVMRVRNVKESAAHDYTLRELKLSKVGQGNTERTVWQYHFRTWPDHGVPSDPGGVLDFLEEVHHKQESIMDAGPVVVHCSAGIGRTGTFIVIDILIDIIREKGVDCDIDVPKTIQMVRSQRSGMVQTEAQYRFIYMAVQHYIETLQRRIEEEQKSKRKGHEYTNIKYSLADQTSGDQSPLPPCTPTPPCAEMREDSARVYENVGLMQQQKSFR
The target in test [10] is Dual specificity protein phosphatase 3 (Homo sapiens, UniProt P51452). In words: VHR phosphatase inhibition, dose response, selectivity assay for STEP inhibitor project, biochemical (AID 602374). In kind it is functional. The note with it: read-out: IC50_Mean.
Chain of Dual specificity protein phosphatase 3 (P51452 whole entry, the tested form may be a part): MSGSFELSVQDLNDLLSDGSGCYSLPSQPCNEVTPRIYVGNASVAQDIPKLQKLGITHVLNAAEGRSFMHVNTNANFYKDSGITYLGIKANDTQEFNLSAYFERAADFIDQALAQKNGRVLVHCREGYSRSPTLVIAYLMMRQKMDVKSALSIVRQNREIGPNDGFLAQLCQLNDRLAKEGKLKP
Test [11] deals with Arf-GAP with SH3 domain, ANK repeat and PH domain-containing protein 1 (Homo sapiens, UniProt Q9ULH1). In kind it is functional.
Chain of Arf-GAP with SH3 domain, ANK repeat and PH domain-containing protein 1 (Q9ULH1 whole entry, the tested form may be a part): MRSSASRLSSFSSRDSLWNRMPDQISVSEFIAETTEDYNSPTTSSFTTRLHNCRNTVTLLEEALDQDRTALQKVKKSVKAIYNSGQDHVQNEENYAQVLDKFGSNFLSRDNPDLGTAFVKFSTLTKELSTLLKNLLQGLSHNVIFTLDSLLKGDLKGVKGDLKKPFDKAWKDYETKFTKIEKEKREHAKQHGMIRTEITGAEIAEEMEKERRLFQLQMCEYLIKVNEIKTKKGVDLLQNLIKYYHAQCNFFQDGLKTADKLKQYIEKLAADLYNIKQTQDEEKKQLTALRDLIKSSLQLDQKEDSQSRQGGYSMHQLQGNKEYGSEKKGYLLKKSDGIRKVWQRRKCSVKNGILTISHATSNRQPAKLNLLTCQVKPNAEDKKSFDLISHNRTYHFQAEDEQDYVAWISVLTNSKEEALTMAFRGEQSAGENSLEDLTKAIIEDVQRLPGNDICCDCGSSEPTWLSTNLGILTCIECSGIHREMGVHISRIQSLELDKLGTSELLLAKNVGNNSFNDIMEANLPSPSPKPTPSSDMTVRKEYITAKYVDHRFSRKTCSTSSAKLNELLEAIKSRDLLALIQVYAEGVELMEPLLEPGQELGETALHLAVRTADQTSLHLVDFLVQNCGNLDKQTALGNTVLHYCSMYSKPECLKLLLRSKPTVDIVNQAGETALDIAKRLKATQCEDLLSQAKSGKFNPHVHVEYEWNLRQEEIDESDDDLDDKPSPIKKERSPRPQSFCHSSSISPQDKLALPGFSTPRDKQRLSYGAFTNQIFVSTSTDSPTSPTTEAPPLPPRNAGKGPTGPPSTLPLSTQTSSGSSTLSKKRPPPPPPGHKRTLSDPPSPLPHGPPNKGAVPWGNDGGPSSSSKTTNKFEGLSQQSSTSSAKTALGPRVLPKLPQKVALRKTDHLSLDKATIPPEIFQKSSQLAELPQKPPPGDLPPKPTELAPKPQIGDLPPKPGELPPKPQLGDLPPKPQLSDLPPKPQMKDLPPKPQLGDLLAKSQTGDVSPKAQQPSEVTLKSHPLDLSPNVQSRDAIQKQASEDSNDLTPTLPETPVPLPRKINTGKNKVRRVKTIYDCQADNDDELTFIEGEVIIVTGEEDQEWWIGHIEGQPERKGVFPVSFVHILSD
For test [12], the target named is Tyrosine-protein phosphatase non-receptor type 5 (Homo sapiens, UniProt P54829). In words: PTPN5 enzyme inhibition – biochemical, fluorescence intensity, uHTS hits, confirmation (AID 602372). In kind it is functional. The note with it: read-out: IC50_Mean.
Chain of Tyrosine-protein phosphatase non-receptor type 5 (P54829 whole entry): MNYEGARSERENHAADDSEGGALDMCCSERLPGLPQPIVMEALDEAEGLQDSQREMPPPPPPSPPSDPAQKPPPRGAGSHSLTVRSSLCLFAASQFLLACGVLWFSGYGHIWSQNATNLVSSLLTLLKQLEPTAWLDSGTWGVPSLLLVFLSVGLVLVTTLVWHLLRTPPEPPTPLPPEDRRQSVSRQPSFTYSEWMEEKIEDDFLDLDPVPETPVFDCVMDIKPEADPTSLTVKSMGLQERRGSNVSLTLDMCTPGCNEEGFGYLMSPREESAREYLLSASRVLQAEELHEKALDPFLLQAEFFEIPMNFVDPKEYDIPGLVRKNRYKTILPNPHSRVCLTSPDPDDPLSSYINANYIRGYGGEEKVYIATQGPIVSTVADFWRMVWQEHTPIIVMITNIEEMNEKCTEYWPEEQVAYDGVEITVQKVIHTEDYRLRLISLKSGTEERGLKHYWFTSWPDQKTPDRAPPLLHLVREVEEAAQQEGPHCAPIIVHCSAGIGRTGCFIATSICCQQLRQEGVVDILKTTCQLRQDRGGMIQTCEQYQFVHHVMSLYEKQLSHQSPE
A short description of test [13]: Late stage assay provider results from the probe development effort to identify inhibitors of the Plasmodium falciparum M17 Leucine Aminopeptidase (M17LAP): radiolabel-based cell-based dose response assay to identify compounds that inhibit P. falciparum growth in RBCs Set 2. In kind it is functional.
Test [14] is described as follows: OVCAR4 cell viability loss – plate reader, dry powder, SA11, cytotoxicity control for PAX8 inhibitor project, dose response (AID 743150). In kind it is functional, cell-based. To be noted: OVCAR-4.
Test [15] can be described thus: OV-90 cell viability loss – plate reader, dry powder, SA8, PAX8 inhibitor project, dose response (AID 743149). In kind it is functional, cell-based.
Test [16] is described as follows: PAX8-dependent cell viability loss – plate reader, dry powder, dose response (AID 743049). In kind it is functional, cell-based.
The nature of test [17]: IGROV1 cell killing – plate reader, dry powder samples, PAX8 inhibitor project, dose response (AID 743043). In kind it is functional, cell-based. The note with it: IGROV-1.
Test [18] is described as follows: activation of miR-122 Renilla sensor silencing – cell-based, Huh7 psiCHECK-miR122, Renilla luciferase, cherry-picked, dose response (AID 651956).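 Note: huh7 hepatoma cells stably carrying a psiCHECK-2 miR-122 sensor plasmid; renilla luciferase signal reporting endogenous miR-122 activity after 48 h compound exposure.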 In kind it is functional.
Test [19] in a line: COV362 cell viability loss – plate reader, dry powder, SA12, cytotoxicity control for PAX8 inhibitor project, dose response (AID 743144). In kind it is functional, cell-based.
The nature of test [20]: reduced cellular PGC1a acetyl-lysine signal – cell-based, cherry-picked samples, dose response (AID 720514).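 Note: potency may reflect raised or lowered acetylation signal.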 In kind it is functional.
A short description of test [21]: OVCAR8 cell viability loss – plate reader, dry powder samples, PAX8 project, dose response (AID 743197). In kind it is functional, cell-based. The note with it: OVCAR-8.
The target of test [22] is Paired box protein Pax-8 (Homo sapiens, UniProt Q06710). The test can be described thus: PAX8 transcriptional activity inhibition in RMG-I – RMG-I cells, luciferase, cherry-pick, dose response (AID 687027).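 Note: luciferase reporter driven by Pax8 target thyroperoxidase promoter measured by SteadyGlo luminescence.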 In kind it is functional, cell-based.
Chain of Paired box protein Pax-8 (Q06710 whole entry): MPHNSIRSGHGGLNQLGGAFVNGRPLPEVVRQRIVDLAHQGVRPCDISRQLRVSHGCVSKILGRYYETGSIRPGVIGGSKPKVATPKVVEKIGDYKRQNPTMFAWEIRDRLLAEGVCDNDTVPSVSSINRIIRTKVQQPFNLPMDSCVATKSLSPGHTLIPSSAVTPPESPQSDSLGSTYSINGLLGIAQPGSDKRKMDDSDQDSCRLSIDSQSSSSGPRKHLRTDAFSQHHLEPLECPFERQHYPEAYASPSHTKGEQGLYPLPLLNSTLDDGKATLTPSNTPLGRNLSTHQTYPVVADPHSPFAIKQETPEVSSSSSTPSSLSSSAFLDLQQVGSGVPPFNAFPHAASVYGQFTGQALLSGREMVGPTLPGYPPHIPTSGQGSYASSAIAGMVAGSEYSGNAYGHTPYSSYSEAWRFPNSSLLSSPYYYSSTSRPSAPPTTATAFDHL
A short description of test [23]: toxicity toward immortalized ovarian surface epithelium – cell-based, plate reader, dry powder samples, cytotoxicity control for PAX8 inhibitor project, dose response (AID 743045). In kind it is functional.
Test [24] in a line: OVCAR-3 cell viability loss – plate reader, dry powder samples, PAX8 inhibitor project, dose response (AID 743044). In kind it is functional, cell-based.
Test [25] in a line: COV434 cell viability loss – plate reader, dry powder, SA7, cytotoxicity control for PAX8 inhibitor project, dose response (AID 743145). In kind it is functional, cell-based.
Test [26] has as its system HEK293. The test can be described thus: viability loss in HEK293T cells – cell-based, ATP luminescence, cherry-pick samples, cytotoxicity control, dose response (AID 687005).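 Note: cells exposed to compound for 48 hours.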 In kind it is functional. The note with it: Homo sapiens.
Test [27] can be described thus: HEK293 Cytotoxicity Assay Measured in Cell-Based System Using Plate Reader - 7071-01_Inhibitor_Dose_CherryPick_Activity_Set2. In kind it is functional.

As for `COc1ccc(CCCNc2c3ccccc3nc3ccccc23)cc1OC`, the IC50 in test [1] is 2.2 µM (active).

`CCN1CCN(C2=C(Nc3ccc(Cl)c(Cl)c3)C(=O)c3ccccc3C2=O)CC1`: the AC50 in [2] was 9.55 µM (active); in [3] it was 21.1 µM (active); in test [4], 10.8 µM (active).

Regarding `COc1ccc(C(=O)NCc2cc(C(C)C)no2)cc1OCCN1CCCCC1`, in [5], the IC50 is 0.76 µM (active).

Take `Cn1c(=N)c(S(=O)(=O)c2ccccc2)cc2c(=O)n3ccccc3nc21`: the IC50 in test [6] is > 12.5 µM (inactive). The AC50 is > 52 µM (inactive) in test [7] and 1.26 µM (active) in [8].

For `NC(=NOC(=O)c1cccc2ccccc12)c1cccc([N+](=O)[O-])c1`, the IC50 in test [9] is 5.9 µM (active); in [10] it was 5.16 µM (active); in test [11], 20.9 µM (inactive); in test [12] it was 29.7 µM (inactive).

Regarding `CCCOc1ccc(CC(=O)NO)cc1`, the IC50 in test [13] was 8.6 µM (active).

On to `CN(C[C@H]1N[C@@H](CO)[C@@H]1c1ccc(C2=CCCC2)cc1)C(=O)c1ccc(F)cc1`, for which the concentration at half-maximal activity (AC50) in test [14] is 1.57 µM (active); in test [15], 9.17 µM (active); in [16], 2.21 µM (active); in test [17] it was 4.15 µM (active); in test [18] it was 13 µM (active); in test [19] it was 3.27 µM (active). Moreover, the AC50 in test [20] is 0.25 µM (active); in test [21] it was 4.04 µM (active); in test [22] it was 0.895 µM (active); in test [23], 3.25 µM (active); in [24], 5.63 µM (active); in test [25], 5.17 µM (active).

As for `Cc1cccc(C)c1NC(=O)CNC(=O)C(C)N1CCCCC1` (configuration not stated), the AC50 in test [26] and in test [27] was > 52 µM (inactive) in each case.
